Tests used:
[1] = system: R6/2 mice; conditions: behavioural symptoms such as rotarod performance improved; cited from earlier work
[2] = target: PDE10A (Homo sapiens, UniProt Q9Y233); test: PDE10A inhibition, [3H]cAMP hydrolysis scintillation proximity assay; format: biochemical
Sequence of PDE10A (Q9Y233 whole entry): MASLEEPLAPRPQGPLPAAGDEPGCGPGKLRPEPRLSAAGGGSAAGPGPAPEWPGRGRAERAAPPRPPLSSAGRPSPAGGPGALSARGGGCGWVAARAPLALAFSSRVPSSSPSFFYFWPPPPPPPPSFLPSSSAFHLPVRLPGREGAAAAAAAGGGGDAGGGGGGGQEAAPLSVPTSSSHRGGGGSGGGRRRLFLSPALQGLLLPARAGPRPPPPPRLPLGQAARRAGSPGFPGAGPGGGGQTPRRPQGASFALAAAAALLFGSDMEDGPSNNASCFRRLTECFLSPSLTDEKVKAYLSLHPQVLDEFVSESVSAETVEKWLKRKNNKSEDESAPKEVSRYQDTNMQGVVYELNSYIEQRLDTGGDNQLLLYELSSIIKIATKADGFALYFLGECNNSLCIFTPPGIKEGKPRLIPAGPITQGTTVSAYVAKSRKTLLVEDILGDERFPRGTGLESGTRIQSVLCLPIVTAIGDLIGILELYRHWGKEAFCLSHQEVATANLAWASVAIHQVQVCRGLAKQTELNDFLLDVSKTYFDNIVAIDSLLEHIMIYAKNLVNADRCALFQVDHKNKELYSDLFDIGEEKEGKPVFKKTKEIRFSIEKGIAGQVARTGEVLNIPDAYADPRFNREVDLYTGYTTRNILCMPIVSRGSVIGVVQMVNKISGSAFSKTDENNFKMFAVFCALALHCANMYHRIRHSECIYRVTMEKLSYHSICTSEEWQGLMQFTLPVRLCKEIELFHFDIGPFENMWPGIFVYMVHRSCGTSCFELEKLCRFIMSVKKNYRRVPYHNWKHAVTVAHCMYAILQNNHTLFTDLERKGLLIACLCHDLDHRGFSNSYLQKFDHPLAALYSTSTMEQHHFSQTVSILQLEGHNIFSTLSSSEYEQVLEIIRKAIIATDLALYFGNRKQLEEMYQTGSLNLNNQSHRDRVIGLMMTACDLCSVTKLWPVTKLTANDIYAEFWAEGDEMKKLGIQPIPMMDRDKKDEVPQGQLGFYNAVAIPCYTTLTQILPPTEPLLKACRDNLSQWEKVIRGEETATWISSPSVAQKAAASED

In the case of `FC(F)(F)Cn1cc(-c2ccncc2)c(-c2ccc(OCc3ccc4ccccc4n3)cc2)n1` [TP-10, 2-[4-[pyridin-4-yl-1-(2,2,2-trifluoroethyl)-1H-pyrazol-3-yl]-phenoxymethyl]-quinoline], the “neuropathology and symptoms in R6/2 mice” value [1] is given as “ameliorated”.
With `COc1cccc2ccc(COc3ccc(-c4c(-c5ccncc5)cnn4C)cc3)nc12` [Compound 11f] the “fold higher PDE10A IC50 value than 11e” value ([2]; IC50 of 8-methoxy 11f versus 7-methoxy 11e) was 2 fold.
For `COc1cc(CSc2ccc(-c3nn(C)cc3-c3ccncc3)cc2)nc2ccccc12` [Compound 10g], the “fold less potent for PDE10A than 10b” value ([2]; IC50 versus the corresponding O-atom bridged analogue 10b) was 600 fold.
